Experimental data from patent publication US8937072B2, “Substituted cyanoaniline compounds, preparation and use thereof” (Sinochem Corporation, priority 2011, dated 2015).
Like-named read-outs stand apart in the source and are kept apart here.

Tests used:
cucumber gray mold = assay: Activity in vitro (96-well, High Through Put): inhibition rate against cucumber gray mold; assay type: cell-based; details: for inhibition rate against cucumber gray mold: dose 0.9 mg/L; for inhibition at 0.3 µg/mL: 0.3 mg/L; for inhibition at 0.9 µg/mL: 0.9 mg/L; for inhibition at 8.3 µg/mL: 8.3 mg/L; for inhibition at 25 µg/mL: dose 25 mg/L
Protocol: The method is as followed: High Through Put is used in the test. The compound is dissolved in a proper solvent to become a testing solution whose concentration is designed. The solvent is selected from acetone, methanol, DMF and so on according to their dissolving capability to the sample. In a no animalcule condition, the testing solution and pathogens suspension are added into the cells of 96 cells culture board, which then should be placed in the constant temperature box. 24 hours later, pathogen germination or growth can be investigated by eyeballing, and the activity in vitro of the compound is evaluated based on germination or growth of control treatment.

cucumber downy mildew = assay: Protectant activity in vivo (whole plant) against cucumber downy mildew; details: for pest or weed control at 25 µg/mL / pest or weed control at 50 µg/mL / pest or weed control at 100 µg/mL / pest or weed control at 12.5 µg/mL / pest or weed control at 400 µg/mL: Cucumis sativus, 168 h; for pest or weed control at 12.5 µg/mL: 12.5 mg/L
Protocol: (§1) The method is as followed: The whole plant is used in this test. The compound is dissolved in a proper solvent to get mother solution. The proper solvent is selected from acetone, methanol, DMF and so on according to their dissolving capability to the sample. The volume rate of solvent and testing solution (v/v) is equal to or less than 5%. The mother solution is diluted with water containing 0.1% tween-80 to get the testing solution whose concentration is designed. The testing solution is sprayed to the host plant by a special plant sprayer. The plant is inoculated with fungus after 24 hours. According to the infecting characteristic of fungus, the plant is stored in a humidity chamber and then transferred into greenhouse after infection is finished. And the other plants are placed in greenhouse directly. The activity of compound is obtained by eyeballing after 7 days in common.

corn rust = assay: Protectant activity in vivo (whole plant) against corn rust; details: for pest or weed control at 6.25 µg/mL / pest or weed control at 25 µg/mL / pest or weed control at 100 µg/mL / pest or weed control at 400 µg/mL: Zea mays, 168 h
Protocol: as §1

[1] = read-out: the inhibition rate against cucumber gray mold (%)
[2] = 2.8 mg/L, read-out: the inhibition rate against cucumber gray mold (%)
[3] = 25 mg/L, read-out: the protectant activity (%) against cucumber downy mildew
[4] = 50 mg/L, read-out: the protectant activity (%) against cucumber downy mildew
[5] = 100 mg/L, read-out: the protectant activity (%) against cucumber downy mildew
[6] = dose 50 mg/L, read-out: protectant activity against cucumber downy mildew in vivo
[7] = 400 mg/L, read-out: the protectant activity (%) against corn rust
[8] = dose 400 mg/L, read-out: protectant activity against corn rust in vivo

SMILES	inhibition at 0.3 µg/mL (cucumber gray mold)	inhibition at 0.9 µg/mL (cucumber gray mold; [1])	inhibition at 2.8 µg/mL (cucumber gray mold; [2])	inhibition at 8.3 µg/mL (cucumber gray mold; [1])	pest or weed control at 25 µg/mL (cucumber downy mildew; [3])	pest or weed control at 50 µg/mL (cucumber downy mildew; [4])	pest or weed control at 100 µg/mL (cucumber downy mildew; [5])	pest or weed control at 12.5 µg/mL (cucumber downy mildew)	pest or weed control at 6.25 µg/mL (corn rust; 6.25 mg/L)	pest or weed control at 25 µg/mL (corn rust; 25 mg/L)	pest or weed control at 100 µg/mL (corn rust; 100 mg/L)	pest or weed control at 400 µg/mL (corn rust; [7])	pest or weed control at 400 µg/mL (corn rust; [8])	further results
N#Cc1c(Cl)c(Cl)c(C#N)c(Nc2ccc([N+](=O)[O-])cc2F)c1Cl [Compound C-27]														inhibition rate against cucumber gray mold (cucumber gray mold; in vitro): 80%; protectant activity against cucumber downy mildew in vivo (cucumber downy mildew; dose 25 mg/L): 100%; protectant activity against cucumber downy mildew in vivo (cucumber downy mildew; dose 50 mg/L): 100%; protectant activity against cucumber downy mildew in vivo (cucumber downy mildew; dose 100 mg/L): 100%; protectant activity against cucumber downy mildew in vivo (cucumber downy mildew; dose 400 mg/L): 100%
N#Cc1c(Cl)c(Cl)c(C#N)c(Nc2ccc(Cl)cc2[N+](=O)[O-])c1Cl [Compound C-33]														protectant activity against cucumber downy mildew in vivo (cucumber downy mildew; dose 400 mg/L): 100%; protectant activity against corn rust in vivo (corn rust; dose 400 mg/L): 100%
N#Cc1c(Cl)c(Cl)c(C#N)c(Nc2c(Cl)cc([N+](=O)[O-])cc2Cl)c1Cl [Compound C-40]														protectant activity against cucumber downy mildew in vivo (cucumber downy mildew; dose 25 mg/L): 100%; protectant activity against cucumber downy mildew in vivo (cucumber downy mildew; dose 50 mg/L): 100%; protectant activity against cucumber downy mildew in vivo (cucumber downy mildew; dose 100 mg/L): 100%; protectant activity against cucumber downy mildew in vivo (cucumber downy mildew; dose 400 mg/L): 100%; the protectant activity (%) against corn rust (corn rust; 6.25 mg/L): 30%; the protectant activity (%) against corn rust (corn rust; 25 mg/L): 80%; the protectant activity (%) against corn rust (corn rust; 100 mg/L): 100%; the protectant activity (%) against corn rust (corn rust; 400 mg/L): 100%; protectant activity against corn rust in vivo (corn rust; dose 100 mg/L): 100%
N#Cc1c(F)c(F)c(C#N)c(Nc2ccc(Cl)cc2Cl)c1F [Compound C-71]														inhibition rate against cucumber gray mold (cucumber gray mold; in vitro): 80%
N#Cc1c(F)c(F)c(C#N)c(Nc2c(Cl)cncc2Cl)c1F [Compound C-125]														protectant activity against corn rust in vivo (corn rust; dose 400 mg/L): 100%
Cc1ccc(Nc2c(F)c(F)c(C#N)c(F)c2C#N)cc1 [KC9]	0%	0%	0%	80%	20%	30%	65%							inhibition at 2.8 µg/mL (cucumber gray mold; in vitro, dose 2.8 mg/L, read-out: inhibition rate against cucumber gray mold): 0%; pest or weed control at 25 µg/mL (cucumber downy mildew; dose 25 mg/L, read-out: protectant activity against cucumber downy mildew in vivo): 20%; pest or weed control at 50 µg/mL (cucumber downy mildew; [6]): 30%
N#Cc1c(F)c(F)c(C#N)c(Nc2ccc(O)cc2)c1F [KC16]					0%	0%	20%	0%	0%	0%	0%	0%	0%	pest or weed control at 50 µg/mL (cucumber downy mildew; [6]): 0%; pest or weed control at 100 µg/mL (cucumber downy mildew; dose 100 mg/L, read-out: protectant activity against cucumber downy mildew in vivo): 20%
N#Cc1c(F)c(Cl)c(Nc2ccccc2)c(C#N)c1F [KC17]					0%	0%	0%	0%	0%	0%	0%	0%	0%	pest or weed control at 400 µg/mL (cucumber downy mildew; dose 400 mg/L): 0%
N#Cc1c(F)c(Cl)c(Nc2ccc(Cl)cc2)c(C#N)c1F [KC18]									0%	0%	0%	0%	0%	
Cc1ccc(Nc2c(Cl)c(F)c(C#N)c(F)c2C#N)cc1 [KC19]	0%	0%	0%	0%					0%	0%	0%	0%	0%	inhibition at 25 µg/mL (cucumber gray mold; in vitro): 0%
CN(C)c1ccc(Nc2c(F)c(F)c(C#N)c(F)c2C#N)cc1 [KC24]	0%	0%	0%	0%	0%	0%	0%	0%	0%	0%	0%	0%	0%	inhibition at 25 µg/mL (cucumber gray mold; in vitro): 0%; pest or weed control at 400 µg/mL (cucumber downy mildew; dose 400 mg/L): 0%
COc1ccc(Nc2c(F)c(F)c(C#N)c(C#N)c2F)c(OC)c1 [KC27]	0%	0%	0%	0%	0%	0%	0%	0%	0%	0%	0%	0%	0%	inhibition at 25 µg/mL (cucumber gray mold; in vitro): 0%; pest or weed control at 400 µg/mL (cucumber downy mildew; dose 400 mg/L): 0%
